Target: T1, SIRT1 (Homo sapiens, UniProt Q96EB6)
T1 sequence (Q96EB6 1-747): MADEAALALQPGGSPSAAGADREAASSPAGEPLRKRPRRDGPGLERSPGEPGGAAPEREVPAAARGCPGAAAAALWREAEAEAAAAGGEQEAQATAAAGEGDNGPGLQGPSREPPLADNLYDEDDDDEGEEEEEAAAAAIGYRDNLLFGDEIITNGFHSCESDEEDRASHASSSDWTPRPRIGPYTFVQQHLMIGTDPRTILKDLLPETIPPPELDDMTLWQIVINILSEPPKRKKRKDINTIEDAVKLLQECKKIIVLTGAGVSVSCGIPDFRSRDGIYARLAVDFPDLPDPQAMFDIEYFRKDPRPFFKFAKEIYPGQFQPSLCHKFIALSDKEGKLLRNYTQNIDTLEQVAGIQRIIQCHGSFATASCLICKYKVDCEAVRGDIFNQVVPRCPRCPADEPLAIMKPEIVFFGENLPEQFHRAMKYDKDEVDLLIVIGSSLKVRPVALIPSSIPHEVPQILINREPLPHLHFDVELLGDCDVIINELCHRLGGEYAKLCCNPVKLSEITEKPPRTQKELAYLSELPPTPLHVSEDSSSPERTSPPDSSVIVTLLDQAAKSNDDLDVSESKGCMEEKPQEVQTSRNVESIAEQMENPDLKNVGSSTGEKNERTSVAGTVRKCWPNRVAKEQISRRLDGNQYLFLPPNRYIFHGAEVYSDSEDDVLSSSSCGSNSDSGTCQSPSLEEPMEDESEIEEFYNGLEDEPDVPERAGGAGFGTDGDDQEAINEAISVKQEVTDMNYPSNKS
Assay: mass spectrometry based assay to identify modulators of SIRT1 activity (deacetylation of p53-based acetylated peptide)
Type: biochemical
Conditions: SIRT1 activation, 10 nM SIRT1, 0.5 μM peptide substrate, 120 μM βNAD+, 25 minutes at 25° C.; for Emax: 25 min, read-out: % Fold Act. (percent maximum fold activation)
From the text: A mass spectrometry based assay was used to identify modulators of SIRT1 activity. The mass spectrometry based assay utilizes a peptide having 20 amino acid residues as follows: Ac-EE-K(biotin)-GQSTSSHSK(Ac)NleSTEG-K(5TMR)-EE-NH2 (SEQ ID NO: 1) wherein K(Ac) is an acetylated lysine residue and Nle is a norleucine. The peptide is labeled with the fluorophore 5TMR (excitation 540 nm/emission 580 nm) at the C-terminus. The sequence of the peptide substrate is based on p53 with several modifications. In addition, the methionine residue naturally present in the sequence was replaced with the norleucine because the methionine may be susceptible to oxidation during synthesis and purification.
The mass spectrometry assay is conducted as follows: 0.5 μM peptide substrate and 120 μM βNAD^+ is incubated with 10 nM SIRT1 for 25 minutes at 25° C. in a reaction buffer (50 mM Tris-acetate pH 8, 137 mM NaCl, 2.7 mM KCl, 1 mM MgCl2, 5 mM DTT, 0.05% BSA). Test compounds may be added to the reaction as described above. The SirT1 gene is cloned into a T7-promoter containing vector and transformed into BL21(DE3). After the 25 minute incubation with SIRT1, 10 μL of 10% formic acid is added to stop the reaction. Reactions are sealed and frozen for later mass spec analysis. Determination of the mass of the substrate peptide allows for precise determination of the degree of acetylation (i.e. starting material) as compared to deacetylated peptide (product).
A control for inhibition of sirtuin activity is conducted by adding 1 μL of 500 mM nicotinamide as a negative control at the start of the reaction (e.g., permits determination of maximum sirtuin inhibition). A control for activation of sirtuin activity is conducted using 10 nM of sirtuin protein, with 1 μL of DMSO in place of compound, to determine the amount of deacetylation of the substrate at a given timepoint within the linear range of the assay. This timepoint is the same as that used for test compounds and, within the linear range, the endpoint represents a change in velocity.
For the above assay, SIRT1 protein was expressed and purified as follows. The SirT1 gene was cloned into a T7-promoter containing vector and transformed into BL21(DE3). The protein was expressed by induction with 1 mM IPTG as an N-terminal His-tag fusion protein at 18° C. overnight and harvested at 30,000×g. Cells were lysed with lysozyme in lysis buffer (50 mM Tris-HCl, 2 mM Tris[2-carboxyethyl]phosphine (TCEP), 10 μM ZnCl2, 200 mM NaCl) and further treated with sonication for 10 min for complete lysis. The protein was purified over a Ni-NTA column (Amersham) and fractions containing pure protein were pooled, concentrated and run over a sizing column (Sephadex S200 26/60 global). The peak containing soluble protein was collected and run on an Ion-exchange column (MonoQ). Gradient elution (200 mM-500 mM NaCl) yielded pure protein. This protein was concentrated and dialyzed against dialysis buffer (20 mM Tris-HCl, 2 mM TCEP) overnight. The protein was aliquoted and frozen at −80° C. until further use.
Sirtuin modulating compounds that activated SIRT1 were identified using the assay described above and are shown below in Table 1. The EC1-5 values for the activating compounds are represented by A (EC1-5<1.0 uM), B (EC1-5 1-25 uM), C (EC1-5>25 uM). The percent maximum fold activation is represented by A (Fold activation>150%) or B (Fold Activation<150%).

Emax	EC1.5	SMILES
< 150%	C (EC1-5>25 uM)	O=C(Nc1cccc2oc(-c3ccccc3)nc12)c1cscn1 [Compound 100]
< 150%	C (EC1-5>25 uM)	O=C(Nc1cccc2oc(-c3ccccc3)nc12)c1cnccn1 [Compound 101]
< 150%	C (EC1-5>25 uM)	O=C(Nc1cccc2oc(-c3cccc(C(F)(F)F)c3)nc12)c1cscn1 [Compound 102]
< 150%	C (EC1-5>25 uM)	O=C(Nc1cccc2oc(-c3cccc(C(F)(F)F)c3)nc12)c1cnccn1 [Compound 103]
< 150%	C (EC1-5>25 uM)	O=C(Nc1cccc2oc(-c3cccc(OC(F)(F)F)c3)nc12)c1cscn1 [Compound 104, N-(2-(3-(trifluoromethoxy)phenyl)benzo[d]oxazol-4-yl)thiazole-4-carboxamide]
< 150%	C (EC1-5>25 uM)	O=C(Nc1cccc2oc(-c3cccc(OC(F)(F)F)c3)nc12)c1cnccn1 [Compound 105]
< 150%	C (EC1-5>25 uM)	O=C(Nc1nccs1)c1cccc2nc(-c3cccc(C(F)(F)F)c3)oc12 [Compound 106]
< 150%	C (EC1-5>25 uM)	O=C(Nc1ccccn1)c1cccc2nc(-c3cccc(C(F)(F)F)c3)oc12 [Compound 107]
> 150%	B (EC1-5 1-25 uM)	O=C(Nc1cccnc1)c1cccc2nc(-c3cccc(C(F)(F)F)c3)oc12 [Compound 108]
< 150%	C (EC1-5>25 uM)	O=C(Nc1nccs1)c1ccnc2sc(-c3cccc(C(F)(F)F)c3)nc12 [Compound 109]
< 150%	C (EC1-5>25 uM)	O=C(Nc1ccccn1)c1ccnc2sc(-c3cccc(C(F)(F)F)c3)nc12 [Compound 110]
< 150%	C (EC1-5>25 uM)	O=C(Nc1nccs1)c1cccc2sc(-c3cccc(C(F)(F)F)c3)nc12 [Compound 111]
< 150%	C (EC1-5>25 uM)	O=C(Nc1ccccn1)c1cccc2sc(-c3cccc(C(F)(F)F)c3)nc12 [Compound 112]
< 150%	C (EC1-5>25 uM)	O=C(Nc1cccnc1)c1cccc2sc(-c3cccc(C(F)(F)F)c3)nc12 [Compound 113]
< 150%	C (EC1-5>25 uM)	O=C(Nc1nccs1)c1cccc2sc(-c3cccc(OC(F)(F)F)c3)nc12 [Compound 114]
< 150%	C (EC1-5>25 uM)	O=C(Nc1ccccn1)c1cccc2sc(-c3cccc(OC(F)(F)F)c3)nc12 [Compound 115]
< 150%	C (EC1-5>25 uM)	O=C(Nc1cccnc1)c1cccc2sc(-c3cccc(OC(F)(F)F)c3)nc12 [Compound 116]
< 150%	B (EC1-5 1-25 uM)	O=C(Nc1nccs1)c1cccc2nc(-c3ccccc3OC(F)(F)F)oc12 [Compound 117]
> 150%	B (EC1-5 1-25 uM)	O=C(Nc1ccccn1)c1cccc2nc(-c3ccccc3OC(F)(F)F)oc12 [Compound 118]
> 150%	B (EC1-5 1-25 uM)	O=C(Nc1nc(CN2CCOCC2)cs1)c1cccc2nc(-c3ccccc3OC(F)(F)F)oc12 [Compound 119]

Emax	EC1.5	SMILES
> 150%	A (EC1-5<1.0 uM)	O=C(Nc1cccc(CN2CCOCC2)n1)c1cccc2nc(-c3ccccc3OC(F)(F)F)oc12 [Compound 120]
> 150%	B (EC1-5 1-25 uM)	O=C(Nc1nccs1)c1cccc2nc(-c3ccccc3C(F)(F)F)oc12 [Compound 121]
> 150%	B (EC1-5 1-25 uM)	O=C(Nc1ccccn1)c1cccc2nc(-c3ccccc3C(F)(F)F)oc12 [Compound 122]
> 150%	B (EC1-5 1-25 uM)	O=C(Nc1nc(CN2CCOCC2)cs1)c1cccc2nc(-c3ccccc3C(F)(F)F)oc12 [Compound 123]
> 150%	A (EC1-5<1.0 uM)	O=C(Nc1cccc(CN2CCOCC2)n1)c1cccc2nc(-c3ccccc3C(F)(F)F)oc12 [Compound 124]
< 150%	C (EC1-5>25 uM)	O=C(Nc1nccs1)c1cccc2sc(-c3cccc(N4CCOCC4)c3)nc12 [Compound 125]
< 150%	C (EC1-5>25 uM)	O=C(Nc1ccccn1)c1cccc2sc(-c3cccc(N4CCOCC4)c3)nc12 [Compound 126]
< 150%	C (EC1-5>25 uM)	O=C(Nc1cccnc1)c1cccc2sc(-c3cccc(N4CCOCC4)c3)nc12 [Compound 127]
< 150%	C (EC1-5>25 uM)	O=C(Nc1nccs1)c1cccc2sc(-c3cccnc3)nc12 [Compound 128]
< 150%	C (EC1-5>25 uM)	O=C(Nc1ccccn1)c1cccc2sc(-c3cccnc3)nc12 [Compound 129]
< 150%	B (EC1-5 1-25 uM)	O=C(Nc1nccs1)c1cccc2nc(-c3ccc(F)cc3C(F)(F)F)oc12 [Compound 130]
> 150%	B (EC1-5 1-25 uM)	O=C(Nc1ccccn1)c1cccc2nc(-c3ccc(F)cc3C(F)(F)F)oc12 [Compound 131]
> 150%	B (EC1-5 1-25 uM)	O=C(Nc1nc(CN2CCOCC2)cs1)c1cccc2nc(-c3ccc(F)cc3C(F)(F)F)oc12 [Compound 132]
> 150%	B (EC1-5 1-25 uM)	O=C(Nc1cccc(CN2CCOCC2)n1)c1cccc2nc(-c3ccc(F)cc3C(F)(F)F)oc12 [Compound 133]
< 150%	B (EC1-5 1-25 uM)	O=C(Nc1ccccn1)c1cccc2nc(-c3cc(F)ccc3C(F)(F)F)oc12 [Compound 134]
> 150%	B (EC1-5 1-25 uM)	O=C(Nc1nc(CN2CCOCC2)cs1)c1cccc2nc(-c3cc(F)ccc3C(F)(F)F)oc12 [Compound 135]
> 150%	B (EC1-5 1-25 uM)	O=C(Nc1cccc(CN2CCOCC2)n1)c1cccc2nc(-c3cc(F)ccc3C(F)(F)F)oc12 [Compound 136]
> 150%	B (EC1-5 1-25 uM)	O=C(Nc1nccs1)c1cccc2oc(-c3ccccc3C(F)(F)F)nc12 [Compound 137, N-(thiazol-2-yl)-2-(2-(trifluoromethyl)phenyl)benzo[d]oxazole-4-carboxamide]
> 150%	B (EC1-5 1-25 uM)	O=C(Nc1ccccn1)c1cccc2oc(-c3ccccc3C(F)(F)F)nc12 [Compound 138]
> 150%	A (EC1-5<1.0 uM)	O=C(Nc1nc(CN2CCOCC2)cs1)c1cccc2oc(-c3ccccc3C(F)(F)F)nc12 [Compound 139]
